From publication PMC12472391, “Borylated Five-Membered Ring Iminosugars: Synthesis, Spectroscopic Analysis, and Biological Evaluation for Glycosidase Inhibition and Anticancer Properties for Application in Boron Neutron Capture Therapy (BNCT)—Part 1” (Pharmaceuticals, 2025)

Legend:
α-D-glucosidase (rice) = α-D-glucosidase (rice) (Oryza sativa subsp. japonica, UniProt Q653V7); assay: Glycosidase inhibition, Table 6 (Laboratory 1); type: biochemical
U87 glioblastoma cells = assay: Cancer screening, MTT growth inhibition; type: cell-based; conditions: 72-h exposure
Method: (§1) Two assays were run: the dose screen to ascertain cell growth inhibition in response to 25 µM of drug (on a blue background) and the dose response (GI50) (on a green background). For a discussion of BNCT as a radiotherapeutic modality, a rationalisation is provided here.
(§2) All test agents were prepared as stock solutions (20 mM) in dimethyl sulfoxide (DMSO) and stored at −20 °C. Cell lines used in the study included HT29, (colorectal carcinoma); U87, SJ-G2, (glioblastoma); MCF-7, (breast carcinoma); A2780 (ovarian carcinoma); H460 (lung carcinoma); A431 (skin carcinoma); Du145 (prostate carcinoma); BE2-C (neuroblastoma) and MiaPaCa-2 (pancreatic carcinoma); together with the one non-tumour derived normal breast cell line (MCF10A). All cell lines were incubated in a humidified atmosphere 5% CO2 at 37 °C. The cancer cell lines were maintained in Dulbecco’s modified Eagle’s medium (DMEM; Sigma, Australia) supplemented with foetal bovine serum (10%), sodium pyruvate (10 mM), penicillin (100 IUmL^−1), streptomycin (100 µg mL^−1), and L-glutamine (2 mM).
(§3) Growth inhibition was determined by plating cells in duplicate in medium (100 µL) at a density of 2500–4000 cells per well in 96-well plates. On day 0 (24 h after plating), when the cells are in logarithmic growth, medium (100 µL) with or without the test agent was added to each well. After a 72-h drug exposure, growth inhibitory effects were evaluated using the MTT (3-(4,5-dimethyltiazol-2-yl)-2,5-diphenyltetrazolium bromide) assay and absorbance read at 540 nm. The percentage growth inhibition was calculated at a fixed concentration of 25 µM, based on the difference between the optical density values on day 0 and those at the end of drug exposure. Each data point is the mean ± the standard error of the mean (SEM) calculated from three replicates, which were performed on separate occasions and separate cell line passages.

[1] = test system: MIA-Pa-Ca2 pancreatic carcinoma cells; assay: Cancer screening, MTT growth inhibition; type: cell-based; conditions: 72-h exposure
Method: as §1, §2, §3

[2] = test system: A431 skin carcinoma cells; assay: Cancer screening, MTT growth inhibition; type: cell-based; conditions: 72-h exposure
Method: as §1, §2, §3

[3] = test system: A2780 ovarian carcinoma cells; assay: Cancer screening, MTT growth inhibition; type: cell-based; conditions: 72-h exposure
Method: as §1, §2, §3

[4] = test system: MCF-7 breast carcinoma cells; assay: Cancer screening, MTT growth inhibition; type: cell-based; conditions: for MCF-7 Breast Carcinoma, Percentage (%) Cell Growth Inhibition in response to 25 µM of Drug: 72-h exposure
Method: as §1, §2, §3

[5] = test system: H460 lung carcinoma cells; assay: Cancer screening, MTT growth inhibition; type: cell-based; conditions: 72-h exposure
Method: as §1, §2, §3

[6] = test system: Du145 prostate carcinoma cells; assay: Cancer screening, MTT growth inhibition; type: cell-based; conditions: for Du145 Prostate Carcinoma, Percentage (%) Cell Growth Inhibition in response to 25 µM of Drug: 72-h exposure
Method: as §1, §2, §3

SJ-G2 glioblastoma cells = assay: Cancer screening, MTT growth inhibition; type: cell-based; conditions: for SJ-G2 Glioblastoma, Percentage (%) Cell Growth Inhibition in response to 25 µM of Drug: 72-h exposure
Method: as §1, §2, §3

[7] = test system: HT29 colon carcinoma cells; assay: Cancer screening, MTT growth inhibition; type: cell-based; conditions: 72-h exposure
Method: as §1, §2, §3

[8] = test system: BE2-C neuroblastoma cells; assay: Cancer screening, MTT growth inhibition; type: cell-based; conditions: 72-h exposure
Method: as §1, §2, §3

β-D-glucosidase (almond) = assay: Glycosidase inhibition, Table 7; type: biochemical; conditions: 1 mg/mL aqueous solution added, 27 °C, run in water
Method: (§4) All enzymes and para-nitrophenyl substrates were purchased from Sigma. Enzymes were assayed at 27 °C in citric acid (0.1M)/disodium hydrogen phosphate (0.2 M) buffers at the optimum pH for the enzyme. The incubation mixture consisted of […] enzyme solution, […] of 1 mg/mL aqueous solution of extract, and […] of the appropriate 5 mM para-nitrophenyl substrate made up in buffer at the optimum pH for the enzyme. The reactions were stopped by the addition of […] 0.4 M glycine (pH 10.4) during the exponential phase of the reaction, which had been determined at the beginning using uninhibited assays in which water replaced the inhibitor. Final absorbances were read at 405 nm using a Versamax microplate reader (Molecular Devices). Assays were carried out in triplicate, and the values given are the means of the three replicates per assay. All reactions run in water.

α-D-glucosidase (yeast) = biological target: T1, α-D-glucosidase (yeast) (Saccharomyces cerevisiae, UniProt P53341); assay: Glycosidase inhibition, Table 7; type: biochemical; conditions: 1 mg/mL aqueous solution added, 27 °C, run in water
T1 construct: purchased Sigma
Method: as §4

[9] = test system: β-D-glucuronidase (bovine liver); assay: Glycosidase inhibition, Table 7; type: biochemical; conditions: 1 mg/mL aqueous solution added, 27 °C, run in water
Method: as §4

[10] = Appearance: 1 mL of water added to 1 mg of solid, and mixed; type: physicochemical
[11] = test system: MCF10A normal breast cells; assay: Cancer screening, MTT growth inhibition; type: cell-based; conditions: 25 µM, 72-h exposure
Method: as §1, §2
The non-cancer MCF10A cell line was maintained in DMEM/F12 (1:1) cell culture media, 5% heat inactivated horse serum, supplemented with penicillin (50 IUmL^−1), streptomycin (50 µg mL^−1), HEPES (20 mM), L-glutamine (2 mM), epidermal growth factor (20 ng mL^−1), hydrocortisone (500 ng mL^−1), cholera toxin (100 ng mL^−1), and insulin (10 mg mL^−1).
as §3

T1 sequence (P53341 whole entry): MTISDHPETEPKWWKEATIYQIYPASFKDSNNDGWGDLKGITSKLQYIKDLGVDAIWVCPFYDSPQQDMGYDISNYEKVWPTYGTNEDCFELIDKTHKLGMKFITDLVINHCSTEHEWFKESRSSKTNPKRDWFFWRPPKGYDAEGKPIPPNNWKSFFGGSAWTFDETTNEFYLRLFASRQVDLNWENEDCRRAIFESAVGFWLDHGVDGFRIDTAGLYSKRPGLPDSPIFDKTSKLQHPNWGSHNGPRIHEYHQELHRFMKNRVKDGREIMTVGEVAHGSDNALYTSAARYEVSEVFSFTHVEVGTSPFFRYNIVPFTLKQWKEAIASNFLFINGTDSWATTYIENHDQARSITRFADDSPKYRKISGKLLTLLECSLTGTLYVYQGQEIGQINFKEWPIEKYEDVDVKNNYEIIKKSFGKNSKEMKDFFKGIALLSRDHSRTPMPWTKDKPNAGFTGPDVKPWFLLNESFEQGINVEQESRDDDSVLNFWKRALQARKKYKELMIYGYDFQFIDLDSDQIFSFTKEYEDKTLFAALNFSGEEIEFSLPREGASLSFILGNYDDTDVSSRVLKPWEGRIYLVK
Sequence of α-D-glucosidase (rice) (Q653V7 34-885): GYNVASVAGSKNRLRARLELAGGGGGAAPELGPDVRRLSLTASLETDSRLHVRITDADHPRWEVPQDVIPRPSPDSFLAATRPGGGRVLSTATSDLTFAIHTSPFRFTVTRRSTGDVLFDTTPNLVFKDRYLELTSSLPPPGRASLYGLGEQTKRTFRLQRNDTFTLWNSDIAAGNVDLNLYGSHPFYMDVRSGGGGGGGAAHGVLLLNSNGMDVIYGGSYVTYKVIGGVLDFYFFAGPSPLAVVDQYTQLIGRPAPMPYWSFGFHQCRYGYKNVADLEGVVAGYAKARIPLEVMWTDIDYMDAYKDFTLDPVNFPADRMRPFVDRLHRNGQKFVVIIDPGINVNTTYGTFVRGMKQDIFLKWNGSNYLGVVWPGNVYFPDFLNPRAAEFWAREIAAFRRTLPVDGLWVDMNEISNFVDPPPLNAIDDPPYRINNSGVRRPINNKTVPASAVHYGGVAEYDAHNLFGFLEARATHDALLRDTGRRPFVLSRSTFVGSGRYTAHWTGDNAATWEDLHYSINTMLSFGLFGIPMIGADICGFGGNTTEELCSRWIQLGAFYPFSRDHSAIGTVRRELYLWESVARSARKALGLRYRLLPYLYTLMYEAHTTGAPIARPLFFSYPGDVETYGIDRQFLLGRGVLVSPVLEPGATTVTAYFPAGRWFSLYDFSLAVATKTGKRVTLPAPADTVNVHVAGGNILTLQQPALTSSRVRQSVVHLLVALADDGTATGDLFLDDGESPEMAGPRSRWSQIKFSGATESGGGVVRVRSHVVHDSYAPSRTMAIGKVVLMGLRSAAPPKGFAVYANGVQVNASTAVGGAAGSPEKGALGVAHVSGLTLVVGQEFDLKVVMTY

Compound | U87 Glioblastoma, Percentage (%) Cell Growth Inhibition in response to 25 µM of Drug (U87 glioblastoma cells) | MIA-Pa-Ca2 Pancreatic Carcinoma, Percentage (%) Cell Growth Inhibition in response to 25 µM of Drug [1] | A431 Skin Carcinoma, Percentage (%) Cell Growth Inhibition in response to 25 µM of Drug [2] | A2780 Ovarian Carcinoma, Percentage (%) Cell Growth Inhibition in response to 25 µM of Drug [3] | MCF-7 Breast Carcinoma, Percentage (%) Cell Growth Inhibition in response to 25 µM of Drug [4] | H460 Lung Carcinoma, Percentage (%) Cell Growth Inhibition in response to 25 µM of Drug [5] | Du145 Prostate Carcinoma, Percentage (%) Cell Growth Inhibition in response to 25 µM of Drug [6] | SJ-G2 Glioblastoma, Percentage (%) Cell Growth Inhibition in response to 25 µM of Drug (SJ-G2 glioblastoma cells) | HT29 Colon Carcinoma, Percentage (%) Cell Growth Inhibition in response to 25 µM of Drug [7] | BE2-C Neuroblastoma, Percentage (%) Cell Growth Inhibition in response to 25 µM of Drug [8] | β-D-Glucosidase Almond, percentage inhibition (β-D-glucosidase (almond)) | α-D-Glucosidase Yeast, percentage inhibition (α-D-glucosidase (yeast)) | β-D-Glucuronidase Bovine Liver, percentage inhibition [9] | Appearance [10] | MCF10A Breast (Normal), Percentage (%) Cell Growth Inhibition in response to 25 µM of Drug [11] | other results
N[C@@H](Cc1ccc(B(O)O)cc1)C(=O)O [^10B-BPA, reference compound] | * <0% | * 11 ± 3% | * 4 ± 4% | * 8 ± 4% | * 1 ± 3% | * 8 ± 5% | * 15 ± 9% | * 5 ± 10% | * 15 ± 4% | * 10 ± 6% | 3% | 3.4% | −1% | Some in solution with undissolved sediment | * <0% | α-D-Glucosidase Rice, inhibition % at 100 μM (α-D-glucosidase (rice); 100 μM): ^c NI ^d (0%)
borocaptate sodium [BSH, reference compound] | * <0% | * 2 ± 6% | * <0% | * 2 ± 5% | * 15 ± 3% | * 8 ± 2% | * 0 ± 8% | * 3 ± 8% | * 3 ± 2% | * 10 ± 6% | 47.3% | 59% | 31.6% | In solution | * 8 ± 3% | α-D-Glucosidase Rice, inhibition % at 1000 μM (α-D-glucosidase (rice); 1000 μM): ^a NI ^b (0%)
OC1O[C@@H]2[C@H]([C@H]1O)N(Cc1ccccc1)C[C@H]2O (stereo partly drawn) [Compound 4, N-Benzyl-3,6-dideoxy-3,6-imino-D-gulofuranose] | – | – | – | – | – | – | – | – | – | – | 58.1% | – | −4.3% | In solution | – | inhibition at 1000 µM (α-D-glucosidase (rice)): 1.3%; inhibition at 25 µM (U87 glioblastoma cells; read-out: U87 Glioblastoma, Percentage (%) Cell Growth Inhibition in response to 25 µM of Drug): 8%; inhibition at 25 µM ([1]; Homo sapiens, MIA PaCa-2, 25 µM, read-out: MIA-Pa-Ca2 Pancreatic Carcinoma, Percentage (%) Cell Growth Inhibition in response to 25 µM of Drug): 8%; inhibition at 25 µM ([2]; Homo sapiens, A-431, 25 µM, read-out: A431 Skin Carcinoma, Percentage (%) Cell Growth Inhibition in response to 25 µM of Drug): 11%; inhibition at 25 µM ([3]; Homo sapiens, A2780, 25 µM, read-out: A2780 Ovarian Carcinoma, Percentage (%) Cell Growth Inhibition in response to 25 µM of Drug): 15%; inhibition at 25 µM ([4]; Homo sapiens, MCF7, 72-h exposure, read-out: MCF-7 Breast Carcinoma, Percentage (%) Cell Growth Inhibition in response to 25 µM of Drug): 9%; inhibition at 25 µM ([5]; Homo sapiens, NCI-H460, 25 µM, read-out: H460 Lung Carcinoma, Percentage (%) Cell Growth Inhibition in response to 25 µM of Drug): 8%; inhibition at 25 µM ([6]; Homo sapiens, DU-145, 72-h exposure, read-out: Du145 Prostate Carcinoma, Percentage (%) Cell Growth Inhibition in response to 25 µM of Drug): 0%; inhibition at 25 µM (SJ-G2 glioblastoma cells; SJ-G2, 72-h exposure, read-out: SJ-G2 Glioblastoma, Percentage (%) Cell Growth Inhibition in response to 25 µM of Drug): 12%; inhibition at 25 µM ([7]; Homo sapiens, HT-29, 25 µM, read-out: HT29 Colon Carcinoma, Percentage (%) Cell Growth Inhibition in response to 25 µM of Drug): 11%; inhibition at 25 µM ([8]; Homo sapiens, BE(2)-C, read-out: BE2-C Neuroblastoma, Percentage (%) Cell Growth Inhibition in response to 25 µM of Drug): 12%; inhibition at 1000 µg/mL (stock) (α-D-glucosidase (yeast); read-out: α-D-Glucosidase Yeast, percentage inhibition): -79%; inhibition at 25 µM ([11]; Homo sapiens, MCF-10A, read-out: MCF10A Breast (Normal), Percentage (%) Cell Growth Inhibition in response to 25 µM of Drug): 14%
